Results on 14 molecules are retold here after patent US11919902B2, “Aryl-bipyridine amine derivatives as phosphatidylinositol phosphate kinase inhibitors” (HiberCell, Inc., priority 2017, dated 2024).

For orientation: IC50 means the concentration that gives 50% inhibition.

The target in experiment [1] is T1, PIP4K2A (full length protein, SignalChem) (Homo sapiens, UniProt P48426).
T1 construct: 4 nM PIP4K2A (full length protein, SignalChem); purchased SignalChem
T1 sequence (P48426 1-406): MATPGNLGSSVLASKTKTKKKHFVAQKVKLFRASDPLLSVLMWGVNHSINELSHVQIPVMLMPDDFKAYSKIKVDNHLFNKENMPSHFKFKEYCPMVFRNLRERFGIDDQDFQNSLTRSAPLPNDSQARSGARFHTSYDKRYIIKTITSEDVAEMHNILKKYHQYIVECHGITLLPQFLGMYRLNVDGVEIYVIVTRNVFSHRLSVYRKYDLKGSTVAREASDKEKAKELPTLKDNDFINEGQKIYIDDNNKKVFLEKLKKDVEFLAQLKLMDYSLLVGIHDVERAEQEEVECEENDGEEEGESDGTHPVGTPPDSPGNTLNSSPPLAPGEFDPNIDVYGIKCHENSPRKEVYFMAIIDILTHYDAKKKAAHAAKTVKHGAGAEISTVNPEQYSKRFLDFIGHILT
The experiment in a line: Kinase Assay PIP4K2 A (Sprint); ADP-Glo biochemical assay. The following applies: Table 2; compounds listed under IC50 range headings. On the procedure:
Dilution series of the compounds were prepared in DMSO at 100 times the final assay concentration (n1=n0/3 in 10 points). The compounds were further diluted to three times the assay concentration in assay buffer (20 mM MOPS pH 7.2, 25 mM magnesium chloride, 0.005% Tween 20). 6 μL of the diluted compounds were added to a 384 well assay plate followed by 9 μL of a mix consisting of 4 nM PIP4K2A (full length protein, SignalChem) and 100 μM PI(5)P diC8 (Tebu-Bio). Enzyme and compounds were pre-incubated at room temperature for 15 min.
Then 3 μL of a solution containing 60 μM ATP (Promega) in assay buffer was added to the wells containing compound and enzyme and mixing was performed by pipetting several times. The reaction was incubated at room temperature for 1 h. Then 18 μL of ADP-Glo™ Reagent (Promega) was added to stop the kinase reaction and deplete the unconsumed ATP, mixing was performed by pipetting several times. The plate was incubated at room temperature for 40 min before addition of 36 μL of Kinase Detection Reagent (Promega) to convert ADP to ATP and introduce luciferase and luciferin to detect ATP. The reaction was incubated at room temperature for 40 min before the luminescence was measured in a in a Victor 3V 1420 multilabel counter (Perkin Elmer).
Percent inhibition of the compounds as compared to dimethyl sulfoxide treated control samples was calculated. Compound concentration versus percent inhibition were fitted to generate IC50 values.
For orientation: In ADP-Glo the light output rises with the ADP produced.

In the next experiment the target is T2, GST tagged PIP4KtypeIIB (Homo sapiens, UniProt P78356).
T2 construct: made in house; host or cells: E. coli
T2 sequence (P78356 1-416): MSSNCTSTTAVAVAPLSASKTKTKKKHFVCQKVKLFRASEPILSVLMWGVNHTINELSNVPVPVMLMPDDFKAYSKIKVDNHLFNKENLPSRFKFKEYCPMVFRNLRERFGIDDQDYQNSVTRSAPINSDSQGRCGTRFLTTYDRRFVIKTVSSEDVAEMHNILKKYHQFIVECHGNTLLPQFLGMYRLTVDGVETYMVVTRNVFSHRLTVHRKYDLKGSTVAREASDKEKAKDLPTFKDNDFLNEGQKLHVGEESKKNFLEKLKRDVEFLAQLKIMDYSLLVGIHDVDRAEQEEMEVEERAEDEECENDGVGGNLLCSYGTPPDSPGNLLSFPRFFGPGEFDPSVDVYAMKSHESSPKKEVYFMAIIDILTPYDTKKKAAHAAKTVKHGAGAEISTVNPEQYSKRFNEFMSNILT
Kind of experiment: Trans-FI P kinase assay PIP4K2B (PIP4KtypeIIB inhibition assay). The note with it: Table 4; compounds listed under IC50 range headings; 100 uM GTP, 5 nM PIP4KIIB; read-out: Trans-FI P kinase assays: PIP4K2B IC50. The experiment is classed as biochemical. The text has this: GST tagged PIP4KtypeIIA and B enzymes were overexpressed in E. Coli and purified to >80% homogeneity. Phosphatidyl inositol-5-phosphate (PI5P, Cat. #850152, Avanti Polar Lipids Inc.) was used as the lipid substrate and phosphatidyl ethanolamine (DOPE 18:1, Cat. #850725, Avanti Polar Lipids Inc.) was used as the carrier lipid for assays. Ultrapure ATP and GTP was purchased from Bellbrooke Labs. ADP Glo reagents were obtained from Promega. Transcreener FI reagent was obtained from Bellbrooke labs.
1. HEPES buffer mix: 200 mM HEPES pH 7.4, 50 mM MgCl2, 0.05% v/v triton×100
2. HNE buffer: 20 mM HEPES, pH 7.4, 100 mM NaCl, 0.5 mM EGTA
3. H:E buffer: 30 mM HEPES, pH 7.4, 1 mM EGTA
GST-tagged PIP4KtypeIIB (3.4 uL, 2.77 mg/mL) was diluted to 5 mL using HNE buffer to yield 5× enzyme stock (25 nM)
Lipid Preparation: In a 10 mL pyrex glass vial, lug of PI5P and lug of DOPE were suspended in 2.5 mL of HEPES buffer mix and 2.5 mL of H:E buffer. The contents were mixed and sonicated for 3 min to yield a translucent lipid stock.
Compound Preparation: Compounds were stored as 5 mM stocks in neat DMSO as room temperature in glass vials. 5 mM stocks were diluted to 2 mM and then serially diluted (3×) in neat DMSO in 96 well polypropylene plates. From the serially diluted stocks, 3 uL was delivered into 250 uL of 25% DMSO (in water) to generate 5× compound stocks. Typically, the highest compound conc. was 24 uM.
The assay volume was kept at 25 uL. To each well of the reaction plate, 10 uL of lipid stock (1:1 ratio PI5P:DOPE) was delivered. This was followed by the addition of 5 uL of compound in 25% DMSO. Then, to each well, 5 uL of 25 nM (5×) typeIIB enzyme was delivered. The contents were mixed well and incubated for 1 h at 27 C. After 1 h, reaction was initiated by adding 5 uL of 500 uM GTP and the contents were mixed well with a multi-channel pipetteman. The final concentration of the reagents are as follows: 50 mM HEPES, pH 7.3, 10 mM MgCl2, 20 mM NaCl, 0.01% v/v triton-X100, 5% DMSO, 100 uM GTP, 80 uM (2 ug) PI5P, 2 ug DOPE, and 5 nM PIP4KIIB Typically, the highest conc. of compounds was 4.8 uM and the lowest conc. was 0.
After 2 h, the reaction was quenched by adding 25 uL of transcreener FI reagent. The contents were incubated at RT for 1 h and the Fluorescence (Ex: 584 Em: 623) was read using Molecular Devices Paradigm plate reader. […] The blanks were averaged and subtracted from all other wells. Using a calibration curve, RFU was converted to uM GDP (product). IC50 was calculated by plotting the residual activity (expressed as % No inhibitor control) vs. log [Inh. conc.] Table 2 represents PI5P4K activity of compounds (Example No.) of the invention arranged in accordance with the inhibition of PIP4K2 A kinase assay.

Consider `CN1CCn2c(cc3c(-c4cncc(-c5ccc(C(=O)N6CC(C)(C)C6)cc5)c4)ccnc32)C1=O` [Example 381, 4-(5-(4-(3,3-dimethylazetidine-1-carbonyl)phenyl)pyridin-3-yl)-7-methyl-8,9-dihydropyrido[3′,2′:4,5]pyrrolo[1,2-a]pyrazin-6(7H)-one], for which the IC50 (in experiment [1]; on GST tagged PIP4KtypeIIB) was 100 to 1000 nM each time.

Take `O=C(NCc1ncco1)c1cc2c(-c3cncc(-c4ccc(N5CCCC5=O)cc4)c3)ccnc2[nH]1` [Example 330, N-(oxazol-2-ylmethyl)-4-(5-(4-(2-oxopyrrolidin-1-yl)phenyl)pyridin-3-yl)-1H-pyrrolo[2,3-b]pyridine-2-carboxamide]: the figures for the IC50 (in experiment [1]; on GST tagged PIP4KtypeIIB) were 100 to 1000 nM and 10 to 100 nM, respectively.

In the case of `CN1CCn2c(cc3c(-c4cncc(-c5ccc(C(=O)N6CCOCC6)cc5)c4)ccnc32)C1=O` [Example 327, 7-methyl-4-(5-(4-(morpholine-4-carbonyl)phenyl)pyridin-3-yl)-8,9-dihydropyrido[3′,2′:4,5]pyrrolo[1,2-a]pyrazin-6(7H)-one], the IC50 in experiment [1] is 2500 to 5000 nM; at GST tagged PIP4KtypeIIB, 100 to 1000 nM.

With `CC(C)c1conc1-c1ccc(-c2cncc(-c3ccnc4c3cc3n4CCN(C)C3=O)c2)cc1` [Example 375, 4-(5-(4-(4-isopropylisoxazol-3-yl)phenyl)pyridin-3-yl)-7-methyl-8,9-dihydropyrido[3′,2′:4,5]pyrrolo[1,2-a]pyrazin-6(7H)-one], the IC50 in experiment [1] was in the range of 100 to 1000 nM; on GST tagged PIP4KtypeIIB, 10 to 100 nM.

On to `CC(C)n1cnnc1-c1ccc(-c2cncc(-c3ccnc4[nH]c(C(=O)NCCc5ccncc5)cc34)c2)cc1` [Example 371, 4-(5-(4-(4-isopropyl-4H-1,2,4-triazol-3-yl)phenyl)pyridin-3-yl)-N-(2-(pyridin-4-yl)ethyl)-1H-pyrrolo[2,3-b]pyridine-2-carboxamide], for which the results for the IC50 (in experiment [1]; at GST tagged PIP4KtypeIIB) were 100 to 1000 nM and 10 to 100 nM, respectively.

In the case of `Cc1ccc2c(c1)N(C(=O)c1cc3c(-c4cncc(-c5ccc(N6CCCC6=O)cc5)c4)ccnc3[nH]1)CCO2` [Example 325, 1-(4-(5-(2-(6-methyl-3,4-dihydro-2H-benzo[b][1,4]oxazine-4-carbonyl)-1H-pyrrolo[2,3-b]pyridin-4-yl)pyridin-3-yl)phenyl)pyrrolidin-2-one], the IC50 in experiment [1] was 5 to 100 nM; at GST tagged PIP4KtypeIIB, 100 to 1000 nM.

With `CN1CCn2c(cc3c(-c4cncc(-c5ccc(-c6nncn6C6CC(F)(F)C6)cc5)c4)ccnc32)C1=O` [Example 394, 4-(5-(4-(4-(3,3-difluorocyclobutyl)-4H-1,2,4-triazol-3-yl)phenyl)pyridin-3-yl)-7-methyl-8,9-dihydropyrido[3′,2′:4,5]pyrrolo[1,2-a]pyrazin-6(7H)-one], the IC50 lay in the range of 2500 to 5000 nM in experiment [1] and 100 to 1000 nM on GST tagged PIP4KtypeIIB.

In the case of `CC(C)Cn1cnnc1-c1ccc(-c2cncc(-c3ccnc4[nH]c(C(=O)NCCc5ccncc5)cc34)c2)cc1` [Example 396, 4-(5-(4-(4-isobutyl-4H-1,2,4-triazol-3-yl)phenyl)pyridin-3-yl)-N-(2-(pyridin-4-yl)ethyl)-1H-pyrrolo[2,3-b]pyridine-2-carboxamide], the IC50 was 1000 to 2500 nM in experiment [1] and 10 to 100 nM at GST tagged PIP4KtypeIIB.

`CC(C)n1cnnc1-c1ccc(-c2cncc(-c3ccnc4[nH]c(C(=O)NCc5cccnc5)cc34)c2)cc1` [Example 378, 4-(5-(4-(4-isopropyl-4H-1,2,4-triazol-3-yl)phenyl)pyridin-3-yl)-N-(pyridin-3-ylmethyl)-1H-pyrrolo[2,3-b]pyridine-2-carboxamide]: the IC50 in experiment [1] was in the range of 100 to 1000 nM; at GST tagged PIP4KtypeIIB it was 10 to 100 nM.

For `O=C(COc1cccc2c1C(=O)N(C1CCC(=O)NC1=O)C2=O)NCCCCCCCCNC(=O)c1cc2c(-c3cncc(-c4ccc(N5CCCC5=O)cc4)c3)ccnc2[nH]1` (stereo not shown) [Example 395, N-(8-(2-((2-(2,6-dioxopiperidin-3-yl)-1,3-dioxoisoindolin-4-yl)oxy)acetamido)octyl)-4-(5-(4-(2-oxopyrrolidin-1-yl)phenyl)pyridin-3-yl)-1H-pyrrolo[2,3-b]pyridine-2-carboxamide], the IC50 in experiment [1] was 1000 to 2500 nM; on GST tagged PIP4KtypeIIB it was 100 to 1000 nM.

Turning to `CC(C)n1nnnc1-c1ccc(-c2cncc(-c3ccnc4c3cc3n4CCN(C)C3=O)c2)cc1` [Example 387, 4-(5-(4-(1-isopropyl-1H-tetrazol-5-yl)phenyl)pyridin-3-yl)-7-methyl-8,9-dihydropyrido[3′,2′:4,5]pyrrolo[1,2-a]pyrazin-6(7H)-one], the IC50 in experiment [1] was in the range of 100 to 1000 nM; on GST tagged PIP4KtypeIIB it was 1 to 10 nM.

For the molecule `CC(C)n1cnnc1-c1ccc(-c2cncc(-c3ccnc4c3cc3n4CCN(Cc4ccncc4)C3=O)c2)cc1` [Example 385, 4-(5-(4-(4-isopropyl-4H-1,2,4-triazol-3-yl)phenyl)pyridin-3-yl)-7-(pyridin-4-ylmethyl)-8,9-dihydropyrido[3′,2′:4,5]pyrrolo[1,2-a]pyrazin-6(7H)-one], the IC50 was 100 to 1000 nM in experiment [1] and 1 to 10 nM at GST tagged PIP4KtypeIIB.

For the molecule `CC(C)Cn1cnnc1-c1ccc(-c2cncc(-c3ccnc4[nH]c(C(=O)NCc5ccccc5)cc34)c2)cc1` [Example 372, N-benzyl-4-(5-(4-(4-isobutyl-4H-1,2,4-triazol-3-yl)phenyl)pyridin-3-yl)-1H-pyrrolo[2,3-b]pyridine-2-carboxamide], the results for the IC50 (in experiment [1]; at GST tagged PIP4KtypeIIB) were 1000 to 2500 nM and 10 to 100 nM, respectively.

As for `CN(C(=O)c1cc2c(-c3cncc(-c4ccc(N5CCCC5=O)cc4)c3)ccnc2[nH]1)c1cccnc1` [Example 310, N-methyl-4-(5-(4-(2-oxopyrrolidin-1-yl)phenyl)pyridin-3-yl)-N-(pyridin-3-yl)-1H-pyrrolo[2,3-b]pyridine-2-carboxamide], the IC50 (in experiment [1]; at GST tagged PIP4KtypeIIB) was 100 to 1000 nM each time.
